Values of other authors in patent US12377095B2, “Use of ligustrazine nitrone derivatives in treatment and prevention of diabetic complication diseases” (QINGDAO HAILAN PHARMACEUTICALS CO., LTD., priority 2019, dated 2025).
Read-outs that look alike come from different tables or passages of the source.

Legend:
[1] = system: rats with diabetic nephropathy; details: rats with diabetic nephropathy induced by streptozotocin; cited from earlier work
[2] = system: human renal proximal tubule cells; details: cited from earlier work
[3] = system: patients with diabetic nephropathy; details: cited from earlier work
[4] = system: patients with type 2 diabetes with peripheral neuropathy; details: cited from earlier work
[5] = rabbit, intraperitoneal injection of tetramethylpyrazine hydrochloride; cited from earlier work
[6] = system: patients with diabetic retinopathy; details: electronically controlled tetramethylpyrazine ion added to puerarin injection and Zishen Jianpi Huayu Recipe; control group 67.50%; cited from earlier work
[7] = combined application vs conventional treatment group

Question: With `Cc1nc(C)c(C)nc1C` [tetramethylpyrazine, Tetramethylpyrazine] as the molecule, how does the blood glucose [1] read?
Answer: down-regulate

Question: What about the renal function [1] of the same molecule?
Answer: significantly improve

Question: What about the urine protein exclusion [1] of the same molecule?
Answer: down-regulate

Question: What about the “activity against sodium arsenite-induced damage” value [2] of the same molecule?
Answer: protective activity

Question: What about the “24 h total urine proteins” value [3, 7] of the same molecule?
Answer: reduce

Question: What about the “24 h urinary albumin excretion rate” value [3, 7] of the same molecule?
Answer: reduce

Question: And the “24 h urine protein quantitation” value [3, 7]?
Answer: reduce

Question: And the “effect on reduction of blood urea nitrogen” value [3, 7]?
Answer: not significant

Question: What about the “effect on reduction of diastolic blood pressure” value [3, 7] of the same molecule?
Answer: not significant

Question: What about the “effect on reduction of systolic blood pressure” value [3, 7] of the same molecule?
Answer: not significant

Question: And the “adverse reaction during the use” value ([3]; tetramethylpyrazine injection, patients with diabetic nephropathy)?
Answer: no indication of serious adverse reaction

Question: What about the “total effective rate of treatment” value ([4]; conventional dose injection 80 mg/d) of the same molecule?
Answer: 82.93%

Question: What about the “total effective rate of treatment” value ([4]; injection 360-400 mg/d, intravenous drops, 12 d course) of the same molecule?
Answer: 95%

Question: And the “entry into retinal tissue” value [5]?
Answer: can enter the retinal tissue through the blood-retinal barrier

Question: What about the total effective rate [6] of the same molecule?
Answer: 86.84%
